Assay results taken from patent US20120010179A1, “Methods of using a thiazole derivative” (priority 2006, published 2012).

Legend:
[1] = tested on: patients with COPD; test: Pulmonary function tests (trough and peak FEV1), tetomilast with Advair Diskus 250/50, parallel group study (Example 2); format: in vivo, human; parameters: Estimated Treatment Effect, change from baseline in trough FEV1 (tetomilast versus placebo) / Estimated Treatment Effect in Baseline Mean trough FEV1, Day 7 predose (tetomilast versus placebo) / Estimated Treatment Effect, change from baseline in peak FEV1 (tetomilast versus placebo): unit not given here
Method: Pulmonary function tests were conducted throughout the study to monitor the subjects' respiratory status. Flow volume curves were collected via spirometry. Combivent® (Boehringer Ingleheim Pharmaceuticals, Inc., Ridgefield Conn.), which was used for short-acting rescues as needed throughout the studies described below, was withheld for 6 hours prior to any spirometric testing. Spirometry testing was performed at screening, baseline (Day 0), and at specific times during the treatment period. Each subject could have up to 5 spirometric readings at any study time point. Spirometric readings were performed using equipment from the central provider, Quantum Research, Inc. (Louisville, Colo.). All spirometry readings were recorded and sent to Quantum Research, Inc. for analysis
For the spirometric readings, the best effort was reported as follows. The highest acceptable forced expiratory volume in one second (FEV1) value was selected as the “best” of the given test session. If two or more FEV1 values were tied as highest, the sum of FEV1 and forced vital capacity (FVC) for those efforts was used. If both conditions were equal between the two efforts, the values reported were taken from the effort that occurred first, chronologically, based on date and time of the effort.
This study was a multicenter, randomized, double-blind, placebo-controlled, parallel group, outpatient, phase 1B study of Advair Diskus® 250/50 (fluticasone propionate and salmeterol xinafoate, GlaxoSmithKline, Research Triangle Park, N.C.) administered concomitantly with oral placebo or 50 mg tetomilast (2×25 mg tablets) in patients with COPD. All patients underwent a minimum 28-day washout from short-acting inhaled corticosteroids, long-acting bronchodialators, and/or continuous oxygen therapy (>16 hours per day), and a minimum 7-day washout from beta2-agonists and/or oral theophylline. Patients were randomly assigned to one of the two treatment arms (oral tetomilast 50 mg or placebo) prior to dosing on Day 1, and were distributed 1:1 between the two groups according to a computer-generated randomization code provided by the Otsuka Maryland Research Institute (OMRI) Biostatistics Department. Randomization was performed using a central IVRS system and was centralized across study centers.
Subjects received 7 days of treatment with tetomilast 50 mg or placebo oral dose in treatment period 1. During treatment period 2, Days 8 through 35, concomitant inhaled Advair Diskus® 250/50 was added to the treatment regimen.
Subjects were instructed to take their oral study medication (tetomilast 50 mg or placebo) QD with 8 ounces of water immediately after breakfast for all study treatment days. Subjects assigned to the placebo group received two placebo tablets QD. Subjects assigned to the tetomilast group received 2×25 mg tetomilast tablets QD. On study Days 1-7, 14, 21, 28, and 35, subjects consumed their oral study medication (tetomilast 50 mg or placebo) at the clinic in the presence of the study staff.
The inhaled Advair Diskus® 250/50 was self-administered by subjects on all study days between Days 8 and 35, except for Days 14, 21, 28, and 35, when the medication was administered at the clinic in the presence of the study staff. Advair Diskus® 250/50 was administered twice daily (BID). The morning dose coincided with the timing of the oral dose (tetomilast 50 mg or placebo). The evening dose was taken 12 hours later. Dosing times were recorded in subject diaries.
Combivent® (Boehringer Ingleheim Pharmaceuticals, Inc., Ridgefield, Conn.) was provided by the sponsor for short-acting rescue use during the study. Combivent® was withheld for 6 hours prior to any PFTs. Combivent® was supplied as a metered-dose inhaler. Each actuation meters 21 μg of ipratropium bromide and 120 μg of albuterol sulfate from the valve and delivers […] of ipratropium bromide and 103 μg of albuterol sulfate (equivalent to 90 μg albuterol base) from the mouthpiece. […]

[2] = tested on: patients with COPD; test: Pharmacodynamic and safety assessments (ECG, vital signs, serum potassium, adverse events, laboratory), Example 2; format: in vivo, human
Method: Twelve-lead electrocardiograms (ECGs) were conducted after the subject had been resting and supine for ≧3 minutes. In addition to screening and pre-treatment baseline (Day 0) measurements, ECGs were also recorded at specific times during the treatment period. All 12-lead ECG monitors used for this study were calibrated and standardized. The ventricular rate, PR interval (the time elapsing between the beginning of the P wave and the beginning of the QRS interval in an electrocardiogram, corresponding to the electrical activity through the atria), QRS interval (the movement of electrical impulses through the ventricles), QT/QTc interval (the QT interval measures the time between the start of the Q wave and the end of the T wave in the heart's electrical cycle; QTc is a corrected QT interval, as determined by Fridericia's formula [QTcF] and Bazett's formula [QTcB]), and the overall ECG interpretation (normal or abnormal) were documented. Measurements were recorded prior to collection of any blood samples, where applicable. At least three original copies of each ECG (one each for the site, for the sponsor, and for the central ECG provider) were made. […]
Vital signs (heart rate and systolic blood pressure) were measured after the subject had been sitting for ≧3 minutes. […] Measurements were recorded prior to the collection of any blood samples, where applicable. […]

[3] = tested on: lipopolysaccharide (LPS)-induced cytokine production (TNF-α, IL-1β, IL-6); settings: tetomilast pretreatment; human whole blood from normal volunteers in vitro; cited from earlier work
[4] = Baseline Day 1 predose, Day 7, before Advair Diskus
[5] = Baseline Day 1 predose, Day 14, both with Advair Diskus 250/50 BID
[6] = Baseline Day 1 predose, Day 21, both with Advair Diskus 250/50 BID
[7] = Baseline Day 1 predose, Day 28, both with Advair Diskus 250/50 BID
[8] = Baseline Day 1 predose, Day 35, both with Advair Diskus 250/50 BID

## CCOc1ccc(-c2nc(-c3cccc(C(=O)O)n3)cs2)cc1OCC [Tetomilast, 2-(3,4-diethoxyphenyl)-4-(2-carboxy-6-pyridyl)thiazole]
[1]; Advair Diskus 250/50 with tetomilast versus Advair Diskus 250/50 alone, days 8 through 35
  effect on inhaled Advair Diskus 250/50 response (FEV1), exploratory repeated measures analysis: possible potentiation of the effect of inhaled fluticasone propionate plus salmeterol
[1]; Baseline Day 1 predose, Day 1, before Advair Diskus
  Estimated Treatment Effect, change from baseline in peak FEV1 (tetomilast versus placebo): 0.08
[1]; Baseline Day 1 predose, Day 2, before Advair Diskus
  Estimated Treatment Effect, change from baseline in trough FEV1 (tetomilast versus placebo): 0.11
[1]; Baseline Day 1 predose, Day 3, before Advair Diskus
  Estimated Treatment Effect, change from baseline in trough FEV1 (tetomilast versus placebo): 0.07
[1]; Baseline Day 1 predose, Day 4, before Advair Diskus
  Estimated Treatment Effect, change from baseline in trough FEV1 (tetomilast versus placebo): 0.12
[1]; Baseline Day 1 predose, Day 5, before Advair Diskus
  Estimated Treatment Effect, change from baseline in trough FEV1 (tetomilast versus placebo): 0.13
[1]; Baseline Day 1 predose, Day 6, before Advair Diskus
  Estimated Treatment Effect, change from baseline in trough FEV1 (tetomilast versus placebo): 0.11
[1]; [4]
  Estimated Treatment Effect, change from baseline in peak FEV1 (tetomilast versus placebo): 0.23
  Estimated Treatment Effect, change from baseline in trough FEV1 (tetomilast versus placebo): 0.13
[1]; [5]
  Estimated Treatment Effect, change from baseline in peak FEV1 (tetomilast versus placebo): 0.21
  Estimated Treatment Effect, change from baseline in trough FEV1 (tetomilast versus placebo): 0.16
[1]; [6]
  Estimated Treatment Effect, change from baseline in peak FEV1 (tetomilast versus placebo): 0.30
  Estimated Treatment Effect, change from baseline in trough FEV1 (tetomilast versus placebo): 0.18
[1]; [7]
  Estimated Treatment Effect, change from baseline in peak FEV1 (tetomilast versus placebo): 0.28
  Estimated Treatment Effect, change from baseline in trough FEV1 (tetomilast versus placebo): 0.21
[1]; [8]
  Estimated Treatment Effect, change from baseline in peak FEV1 (tetomilast versus placebo): 0.21
  Estimated Treatment Effect, change from baseline in trough FEV1 (tetomilast versus placebo): 0.15
[1]; Baseline Day 7 predose, Day 14, both with Advair Diskus 250/50 BID
  Estimated Treatment Effect, change from baseline in trough FEV1 (tetomilast versus placebo): 0.02
[1]; Baseline Day 7 predose, Day 21, both with Advair Diskus 250/50 BID
  Estimated Treatment Effect, change from baseline in trough FEV1 (tetomilast versus placebo): 0.05
[1]; Baseline Day 7 predose, Day 28, both with Advair Diskus 250/50 BID
  Estimated Treatment Effect, change from baseline in trough FEV1 (tetomilast versus placebo): 0.06
[1]; Baseline Day 7 predose, Day 35, both with Advair Diskus 250/50 BID
  Estimated Treatment Effect, change from baseline in trough FEV1 (tetomilast versus placebo): 0.02
[1]; Day 7 predose, before Advair Diskus
  Estimated Treatment Effect in Baseline Mean trough FEV1, Day 7 predose (tetomilast versus placebo): 0.38
[1]; day-1 baseline, all time points through day-7 except day-3, and day-14 through day-35 (with Advair Diskus 250/50)
  Trough FEV1 compared with placebo: statistically significantly improved
[1]; days 7, 21 and 28, approached statistical significance at day 14 and day 35
  peak and average FEV1 improvements compared with placebo: statistically significant
[2]; oral tetomilast in combination with Advair Diskus 250/50
  changes in heart rate, systolic blood pressure, serum potassium, or QT interval versus placebo: No clinically meaningful changes
[2]; oral tetomilast with inhaled Advair Diskus 250/50
  differences in adverse events, serum chemistry, hematology, or urinalysis versus placebo: no clinically meaningful differences
[3]
  LPS-induced cytokine production (TNF-α, IL-1β, IL-6): dose-related suppression
